Where “and” joins values, the source holds several entries; their conditions need not be identical. Equal entries are not always repeated. Blank lines part the entries; values can stand above or below the compound they belong to.
How the values were obtained:
[1] = pKa measurement of the cationic lipid (TNS fluorescence vs pH); format: physicochemical; conditions: probe TNS (fluorescent probe), pKa of the cationic lipid of formula (I)
Method: Unless indicated otherwise, all pKa's referred to herein were measured at standard temperature and pressure. Also, unless otherwise indicated, all references to pKa are references to pKa measured using the following technique. 2 mM solution of lipid in ethanol was prepared by weighing the lipid and then dissolving it in ethanol. 0.3 mM solution of fluorescent probe TNS in ethanol:methanol 9:1 was prepared by first making 3 mM solution of TNS in methanol and then diluting to 0.3 mM with ethanol. An aqueous buffer containing 200 mM sodium phosphate dibasic and 100 mM citric acid was prepared. […] Using the Hamilton Microlab Star high throughput liquid handler and Hamilton run control software Software, 7.5 uL of probe/lipid mix were added to 242.5 uL of buffer in a 1 mL 96 well plate (model NUNC 260252, […] Nunc International). This was done with all twelve buffers. After mixing in 1 mL 96 well plate, 100 uL of each probe/lipid/buffer mixture was transferred to a 250 uL black with clear bottom 96 well plate (model COSTAR 3904, Corning). The fluorescence measurements are carried out on the SpectraMax M5 spectrophotometer using software SoftMax pro 5.2 and following parameters: After the measurement, the background fluorescence value of an empty well on the 96 well plate was subtracted from each probe/lipid/buffer mixture. The fluorescence intensity values were then normalized to the value at lowest pH. The normalized fluorescence intensity vs. pH chart was then plotted in the Microsoft Excel software. The twelve points were connected with a smooth line. The point on the line at which the normalized fluorescence intensity was equal to 0.5 was found. […] The pKa determined using this method is precise to about 0.1 pKa units.

[2] = Polydispersity index (PDI) of the lipid nanoparticle (dynamic light scattering); format: physicochemical; conditions: Table 4, FVII siRNA LNP
Text: The lipid nanoparticles (LNPs) were formed by mixing equal volumes of lipids dissolved in alcohol with siRNA dissolved in a citrate buffer by an impinging jet process. […] The siRNA to total lipid ratio is approximately 0.05 (wt/wt). Where a LNP formulation contains four lipid components, the molar ratios correspond to the type of lipid as it appears in the first four columns of the table, in the order that they appear. The ratio of the lipids ranges from 20 to 70 mole percent for the cationic lipid with a target of 40-60, the mole percent of helper lipid ranges from 20 to 70 with a target of 30 to 50, the mole percent of neutral lipid ranges from 0-30, the mole percent of PEG lipid has a range from 1 to 6 with a target of 2 to 5. The concentration of siRNA solution ranges from 0.7 to 1.0 mg/mL with a target of 0.8 to 0.9 mg/mL in a sodium citrate: sodium chloride buffer pH 4-6, with a target of 4.5-5.5. The LNPs are formed by mixing equal volumes of lipid solution in ethanol with siRNA dissolved in a citrate buffer by an impinging jet process through a mixing device with ID ranging from 0.25 to 2.0 mm at a flow rate from 10 to 640 mL/min. The mixed LNP solution is held at room temperature for 0-24 hrs prior to a dilution step. […] The final product is sterile filtered and stored at 4° C. Unless indicated otherwise, all PDIs referred to herein are the PDI of the fully formed nanoparticle, as measured by dynamic light scattering on a Malvern Zetasizer. The nanoparticle sample was diluted in phosphate buffered saline (PBS) so that the count rate was approximately 200-400 kcts. The data is presented in Tables 4 and 5 as a weighted average of the intensity measure.

[3] = tested on: respiratory syncytial virus F protein; test: Immunization studies: anti-RSV-F titers after liposome-delivered vA317 self-replicating RNA; format: in vivo; conditions: BALB/c mice, liposomes with 0.1 μg vA317 replicon (naked control 1 μg); for anti-RSV-F titer 2wp1 pool 1 / anti-RSV-F titer 2wp1 pool 2: 2 weeks after first dose; for anti-RSV-F titer 2wp2 pool 1 / anti-RSV-F titer 2wp2 pool 2: 2 weeks after second dose; for anti-RSV-F titer 4wp2 pool 1 / anti-RSV-F titer 4wp2 pool 2: 4 weeks after second dose
Method: BALB/c were immunized with liposomes comprising DSPC, cholesterol, and various lipids of the invention (or, for comparison, the cationic lipid 1,2-dilinoleyloxy-N,N-dimethyl-3-aminopropane or ‘DLinDMA’). The liposomes encapsulated 0.1 μg of “vA317” self-replicating RNA replicon which encodes respiratory syncytial virus F protein (see WO2012/031043). […] Doses were given either on days 0 & 21 or days 0 & 42. Immune responses were assessed 2 weeks after each dose (2wp1, 2wp2), and in some cases also at 4 weeks after the second dose (4wp2). Four series of experiments were performed, each with its own naked control.

[4] = Chol/DSPC/stealth lipid S010, 45/44/9/2

pKa ([1]; Table 4): 6.48
Structure (SMILES): CCCCCCCCCOC(=O)CCCCCCC(=O)OCc1cc(COC(=O)CCCCCCC(=O)OCCCCCCCCC)cc(CN(C)C)c1 [Example 79]

pKa ([1]; Table 4): 6.02
PDI [2, 4]: 0.043
Structure (SMILES): CCCCCCCC(=O)OCCCCCCCCCCOC(=O)CCC(=O)OCc1cc(COC(=O)CCC(=O)OCCCCCCCCCCOC(=O)CCCCCCC)cc(CN(C)C)c1 [Example 78]

pKa ([1]; Table 4): 5.59
pKa ([1]; Table 5): 5.59
PDI ([2]; Chol/DSPC/stealth lipid PEG-DMG, 45/44/9/2): 0.05
Structure (SMILES): CCCCCCCC/C=C\CCCCCCCCOc1cc(CN(C)C)cc(OCCCCCCCC/C=C\CCCCCCCC)c1 [Example 1]

Structure (SMILES): CCCCC/C=C\C/C=C\CCCCCCCCOc1cc(C(=O)OCCCN(C)C)cc(OCCCCCCCC/C=C\C/C=C\CCCCC)n1 [Example 25]
anti-RSV-F titer 2wp1 pool 1 ([3]; Course A = days 0 & 21): 1217
anti-RSV-F titer 2wp1 pool 2 ([3]; Course A = days 0 & 21): 1883
anti-RSV-F titer 2wp2 pool 1 ([3]; Course A = days 0 & 21): 1611
anti-RSV-F titer 2wp2 pool 2 ([3]; Course A = days 0 & 21): 1156
anti-RSV-F titer 4wp2 pool 1 ([3]; Course A = days 0 & 21): 2850
anti-RSV-F titer 4wp2 pool 2 ([3]; Course A = days 0 & 21): 1767

Structure (SMILES): CCCCC/C=C\C/C=C\CCCCCCCCOCC(CN(C)C)OCCCCCCCC/C=C\C/C=C\CCCCC (stereo not shown) [DLinDMA, 1,2-dilinoleyloxy-N,N-dimethyl-3-aminopropane, reference compound]
anti-RSV-F titer 4wp2 pool 1 ([3]; Course A = days 0 & 21): 26504 and 50799
anti-RSV-F titer 4wp2 pool 2 ([3]; Course A = days 0 & 21): 28008 and 35992
anti-RSV-F titer 2wp1 pool 1 ([3]; Course B = days 0 & 42): 13
anti-RSV-F titer 2wp1 pool 2 ([3]; Course B = days 0 & 42): 4
anti-RSV-F titer 2wp2 pool 1 ([3]; Course B = days 0 & 42): 18290
anti-RSV-F titer 2wp2 pool 2 ([3]; Course B = days 0 & 42): 5538
anti-RSV-F titer 4wp2 pool 1 ([3]; Course B = days 0 & 42): 13936
anti-RSV-F titer 4wp2 pool 2 ([3]; Course B = days 0 & 42): 7020

pKa ([1]; Table 4): 5.98
PDI [2, 4]: 0.09
Structure (SMILES): CCCCC/C=C\C/C=C\CCCCCCCC(=O)OCCCCOc1cc(CN(C)C)cc(OCCCCOC(=O)CC(CCCCCCCC)CCCCCCCC)c1 [Example 109]

pKa ([1]; Table 4): 6.32
Structure (SMILES): CCCCCCCCC(CCCCCCCC)CC(=O)OCc1cc(COC(=O)CCCCCCCOC(=O)CCCCCCC)cc(CN(C)C)c1 [Example 101]

pKa ([1]; Table 4): 6.15
PDI [2, 4]: 0.005
Structure (SMILES): CCCCCCCCCC(=O)OCCCCCCCC(=O)OCc1cc(COC(=O)CCCCCCCOC(=O)CCCCCCCCC)cc(CN(C)C)c1 [Example 83]

pKa ([1]; Table 4): 5.81
Structure (SMILES): CCCCCCCCCCCCOC(=O)CCCCCOc1cc(CN(C)C)cc(OCCCCCC(=O)OCCCCCCCCCCCC)c1 [Example 90]

pKa ([1]; Table 4): 6.09
PDI [2, 4]: 0.014
Structure (SMILES): CCCCC/C=C\C/C=C\CCCCCCCCOC(=O)CCC(=O)OCc1cc(COC(=O)CCC(=O)OCCCCCCCC/C=C\C/C=C\CCCCC)cc(CN(C)C)c1 [Example 77]

pKa ([1]; Table 4): 6.09
Structure (SMILES): CCCCCCCCCCCC(=O)OCCCCCCOc1cc(CN(C)C)cc(OCCCCCCOC(=O)CCCCCCCCCCC)c1 [Example 59]

pKa ([1]; Table 4): 5.82
Structure (SMILES): CCCCC/C=C\C/C=C\CCCCCCCC(=O)OCCCOc1cc(CN(C)C)cc(OCCCOC(=O)CC(CCCCCCCC)CCCCCCCC)c1 [Example 97]

pKa ([1]; Table 4): 5.72
Structure (SMILES): CCCCCCCC(=O)OCCCCCC(=O)OCc1cc(COC(=O)CCCCCOC(=O)CCCCCCC)cc(CN(C)C)c1 [Example 85]

Reference: patent US9504747B2, “Lipids and lipid compositions for the delivery of active agents” (Novartis AG, priority 2013, dated 2016)
